Experiment [1] concerns the target NAMPT (human, recombinant, C-terminally His-tagged) (Homo sapiens, UniProt P43490). Kind of experiment: Time-Resolved Fluorescence Resonance Energy Transfer (TR-FRET) Binding Assay of NAMPT. Particulars: absence of substrates; 6.8 nM NAMPT, 200 nM probe, equilibrated 3 hours. The procedure:
Determination of the utility of compounds having Formula (I) as binders to and inhibitors of NAMPT was performed using Time-Resolved Fluorescence Resonance Energy Transfer (TR-FRET) binding assays.
Time-Resolved Fluorescence Resonance Energy Transfer (TR-FRET) Binding Assay of NAMPT
Test compounds were serially diluted (typically 11 half log dilutions) in neat DMSO to 50× final concentrations prior to dilution with assay buffer (50 mM HEPES (NaOH), pH 7.5, 100 mM NaCl, 10 mM MgCl2, 1 mM DTT, 1% Glycerol) to 3× and 6% DMSO. Six μL were transferred to 384-well low-volume plates (Owens Corning #3673). To this, 12 μL of a 1.5× solution containing enzyme, probe and antibody were added. Final concentrations in the 18 μL reactions were 1× assay buffer, 2% DMSO, 6.8 nM NAMPT (human, recombinant, C-terminally His-tagged), 200 nM probe (a potent nicotinamide-competitive inhibitor conjugated to Oregon Green 488) and 1 nM Tb-anti-His antibody (Invitrogen #PV5895). Reactions were equilibrated at room temperature for 3 hours prior to reading on an Envision multi-label plate reader (Perkin Elmer; Ex=337 nm, Em=520 and 495 nm). Time-resolved FRET ratios (Em520/Em495) were normalized to controls, plotted as a function of compound concentration and fit with the four-parameter logistic equation to determine IC50s.
A general note: Time-resolved FRET reads energy transfer from a long-lived donor to a nearby acceptor.

A further experiment addresses NAMPT (Homo sapiens, UniProt P43490). Put plainly: Time-Resolved Fluorescence Resonance Energy Transfer (TR-FRET) Binding Assay of NAMPT with PRPP. As to conditions: 200 μM PRPP and 2.5 mM ATP; 2 nM NAMPT, 2 nM probe, equilibrated 16 hours. The procedure:
Time-Resolved Fluorescence Resonance Energy Transfer (TR-FRET) Binding Assay of NAMPT with PRPP
Compound handling and data processing were identical to the assay in the absence of substrates (above). Final concentrations were 1× assay buffer, 2% DMSO, 2 nM NAMPT, 2 nM probe, 1 nM Tb-anti-His antibody (Invitrogen #PV5895), 200 μM PRPP and 2.5 mM ATP. Reactions were equilibrated for 16 hours prior to measurement to allow for potential enzymatic modification of test compounds.

Structures are written as SMILES. Bounds are passed on as bounds.

NAMPT, sequence (P43490 whole entry): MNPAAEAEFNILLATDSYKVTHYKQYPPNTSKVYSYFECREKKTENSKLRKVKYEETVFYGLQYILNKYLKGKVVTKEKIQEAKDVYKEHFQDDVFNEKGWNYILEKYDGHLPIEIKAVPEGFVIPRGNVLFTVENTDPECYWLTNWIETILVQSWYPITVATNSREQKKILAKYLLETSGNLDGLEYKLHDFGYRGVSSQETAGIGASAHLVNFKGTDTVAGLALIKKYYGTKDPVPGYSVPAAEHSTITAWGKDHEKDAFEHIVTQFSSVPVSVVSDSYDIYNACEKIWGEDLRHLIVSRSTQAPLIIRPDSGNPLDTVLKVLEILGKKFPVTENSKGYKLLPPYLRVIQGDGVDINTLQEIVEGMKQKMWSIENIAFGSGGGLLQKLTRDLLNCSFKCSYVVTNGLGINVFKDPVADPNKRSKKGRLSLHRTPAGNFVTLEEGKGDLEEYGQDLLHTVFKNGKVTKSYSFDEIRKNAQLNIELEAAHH
NAMPT (human, recombinant, C-terminally His-tagged), sequence (P43490 whole entry): as above

`O=C(NCCCn1ccnc1)c1cnc(N(Cc2ccc(F)cc2)Cc2ccc(-c3cccnc3)cc2)s1` [Example 1, 2-{(4-fluorobenzyl)[4-(pyridin-3-yl)benzyl]amino}-N-[3-(1H-imidazol-1-yl)propyl]-1,3-thiazole-5-carboxamide]: in experiment [1], the half-inhibitory concentration (IC50) is 0.0638 µM.

On to `CN(Cc1ccc(-c2cccnc2)cc1)c1ncc(C(=O)NCCCn2ccnc2)s1` [Example 2, N-[3-(1H-imidazol-1-yl)propyl]-2-{methyl[4-(pyridin-3-yl)benzyl]amino}-1,3-thiazole-5-carboxamide], for which the IC50 in experiment [1] amounted to 7.56 µM; at NAMPT, 0.00429 µM.

On NAMPT, `CN(Cc1ccc(F)cc1)c1ncc(C(=O)NCCCn2ccnc2)s1` [Example 3, 2-[(4-fluorobenzyl)(methyl)amino]-N-[3-(1H-imidazol-1-yl)propyl]-1,3-thiazole-5-carboxamide] registered an IC50 of 0.0715 µM.

For the compound `O=C(NCCCn1ccnc1)c1cnc(N(Cc2ccc(F)cc2)C(=O)CC2CCOCC2)s1` [Example 4, 2-[(4-fluorobenzyl)(tetrahydro-2H-pyran-4-ylacetyl)amino]-N-[3-(1H-imidazol-1-yl)propyl]-1,3-thiazole-5-carboxamide], the IC50 in experiment [1] was found to be 1.22 µM; on NAMPT it was 0.000548 µM.

Turning to `O=C(NCCCn1ccnc1)c1cnc(N(Cc2ccc(F)cc2)C(=O)CC2CCCCC2)s1` [Example 5, 2-[(cyclohexylacetyl)(4-fluorobenzyl)amino]-N-[3-(1H-imidazol-1-yl)propyl]-1,3-thiazole-5-carboxamide], the values for the half-inhibitory concentration (IC50) (in experiment [1]; on NAMPT) were 0.72 µM and 0.000461 µM, respectively.

In the case of `O=C(NCCCn1ccnc1)c1cnc(N(CCCN2CCOCC2)Cc2ccc(F)cc2)s1` [Example 7, 2-{(4-fluorobenzyl)[3-(morpholin-4-yl)propyl]amino}-N-[3-(1H-imidazol-1-yl)propyl]-1,3-thiazole-5-carboxamide], the figures for the half-inhibitory concentration (IC50) (in experiment [1]; at NAMPT) were 1.61 µM and 0.486 µM, respectively.

For the compound `O=C(NCCCn1ccnc1)c1cnc(N(CCCN2CCCCC2)Cc2ccc(F)cc2)s1` [Example 8, 2-{(4-fluorobenzyl)[3-(piperidin-1-yl)propyl]amino}-N-[3-(1H-imidazol-1-yl)propyl]-1,3-thiazole-5-carboxamide], the IC50 in experiment [1] worked out at 3.16 µM; on NAMPT, 0.29 µM.

Regarding `O=C(NCCCn1ccnc1)c1cnc(N(CCN2CCCC2)Cc2ccc(F)cc2)s1` [Example 9, 2-{(4-fluorobenzyl)[2-(pyrrolidin-1-yl)ethyl]amino}-N-[3-(1H-imidazol-1-yl)propyl]-1,3-thiazole-5-carboxamide], the 50% inhibitory concentration (IC50) on NAMPT was 0.641 µM.

Turning to `CC(C)N1CCN(CCN(Cc2ccc(F)cc2)c2ncc(C(=O)NCCCn3ccnc3)s2)CC1` [Example 10, 2-[(4-fluorobenzyl){2-[4-(propan-2-yl)piperazin-1-yl]ethyl}amino]-N-[3-(1H-imidazol-1-yl)propyl]-1,3-thiazole-5-carboxamide], the IC50 in experiment [1] turned out to be 0.281 µM; at NAMPT it was 0.0196 µM.

Regarding `N#Cc1ccc(C(=O)N(Cc2ccc(F)cc2)c2ncc(C(=O)NCCCn3ccnc3)s2)cc1` [Example 11, 2-[(4-cyanobenzoyl)(4-fluorobenzyl)amino]-N-[3-(1H-imidazol-1-yl)propyl]-1,3-thiazole-5-carboxamide], the 50% inhibitory concentration (IC50) in experiment [1] turned out to be 0.476 µM; at NAMPT, 0.00047 µM.

Turning to `O=C(NCCCn1ccnc1)c1cnc(N(Cc2ccc(F)cc2)C(=O)c2cccc(Cl)c2)s1` [Example 12, 2-[(3-chlorobenzoyl)(4-fluorobenzyl)amino]-N-[3-(1H-imidazol-1-yl)propyl]-1,3-thiazole-5-carboxamide], the values for the half-maximal inhibitory concentration (IC50) (in experiment [1]; on NAMPT) were 0.303 µM and 0.000241 µM, respectively.

Take `O=C(NCCCn1ccnc1)c1cnc(N(Cc2ccc(F)cc2)C(=O)c2ccc(F)cc2)s1` [Example 13, 2-[(4-fluorobenzoyl)(4-fluorobenzyl)amino]-N-[3-(1H-imidazol-1-yl)propyl]-1,3-thiazole-5-carboxamide]: the IC50 in experiment [1] came to 1.75 µM; at NAMPT, 0.000403 µM.

On to `O=C(NCCCn1ccnc1)c1cnc(N(Cc2ccc(F)cc2)Cc2c(Cl)ccc3c2OCO3)s1` [Example 14, 2-{[(5-chloro-1,3-benzodioxol-4-yl)methyl](4-fluorobenzyl)amino}-N-[3-(1H-imidazol-1-yl)propyl]-1,3-thiazole-5-carboxamide], for which, at NAMPT, the IC50 turned out to be 0.338 µM.

`O=C(NCCCn1ccnc1)c1cnc(N(Cc2ccc(F)cc2)Cc2ccc(Cl)cc2)s1` [Example 15, 2-[(4-chlorobenzyl)(4-fluorobenzyl)amino]-N-[3-(1H-imidazol-1-yl)propyl]-1,3-thiazole-5-carboxamide]: the IC50 is 3.82 µM in experiment [1] and 0.0921 µM at NAMPT.

`O=C(NCCCn1ccnc1)c1cnc(N(Cc2ccc(F)cc2)Cc2ccccc2Cl)s1` [Example 16, 2-[(2-chlorobenzyl)(4-fluorobenzyl)amino]-N-[3-(1H-imidazol-1-yl)propyl]-1,3-thiazole-5-carboxamide]: the values for the half-maximal inhibitory concentration (IC50) (in experiment [1]; at NAMPT) were 4.72 µM and 0.217 µM, respectively.

In turn, `O=C(NCCCn1ccnc1)c1cnc(N(Cc2ccc(F)cc2)Cc2cc(Cl)ccc2Cl)s1` [Example 17, 2-[(2,5-dichlorobenzyl)(4-fluorobenzyl)amino]-N-[3-(1H-imidazol-1-yl)propyl]-1,3-thiazole-5-carboxamide] showed a 50% inhibitory concentration (IC50) at NAMPT of 1.22 µM.

For `CNC(=O)CN(Cc1ccc(F)cc1)c1ncc(C(=O)NCCCn2ccnc2)s1` [Example 18, 2-{(4-fluorobenzyl)[2-(methylamino)-2-oxoethyl]amino}-N-[3-(1H-imidazol-1-yl)propyl]-1,3-thiazole-5-carboxamide], the half-maximal inhibitory concentration (IC50) came to 4.82 µM in experiment [1] and 0.814 µM at NAMPT.

At NAMPT, `CC(C)NC(=O)CN(Cc1ccc(F)cc1)c1ncc(C(=O)NCCCn2ccnc2)s1` [Example 19, 2-{(4-fluorobenzyl)[2-oxo-2-(propan-2-ylamino)ethyl]amino}-N-[3-(1H-imidazol-1-yl)propyl]-1,3-thiazole-5-carboxamide] gave an IC50 of 12.5 µM.

The compound `CN(C)C(=O)CN(Cc1ccc(F)cc1)c1ncc(C(=O)NCCCn2ccnc2)s1` [Example 20, 2-{[2-(dimethylamino)-2-oxoethyl](4-fluorobenzyl)amino}-N-[3-(1H-imidazol-1-yl)propyl]-1,3-thiazole-5-carboxamide] came in with a half-inhibitory concentration (IC50) at NAMPT of 12.5 µM.

As for `CCN(CC)C(=O)CN(Cc1ccc(F)cc1)c1ncc(C(=O)NCCCn2ccnc2)s1` [Example 21, 2-{[2-(diethylamino)-2-oxoethyl](4-fluorobenzyl)amino}-N-[3-(1H-imidazol-1-yl)propyl]-1,3-thiazole-5-carboxamide], the figures for the IC50 (in experiment [1]; at NAMPT) were 0.996 µM and 0.505 µM, respectively.

`O=C(NCCCn1ccnc1)c1cnc(N(CC(=O)N2CCOCC2)Cc2ccc(F)cc2)s1` [Example 22, 2-{(4-fluorobenzyl)[2-(morpholin-4-yl)-2-oxoethyl]amino}-N-[3-(1H-imidazol-1-yl)propyl]-1,3-thiazole-5-carboxamide]: the concentration for half-maximal inhibition (IC50) is 0.384 µM in experiment [1] and 0.0602 µM at NAMPT.

Take `COCC(=O)N(Cc1ccc(F)cc1)c1ncc(C(=O)NCCCn2ccnc2)s1` [Example 24, 2-[(4-fluorobenzyl)(methoxyacetyl)amino]-N-[3-(1H-imidazol-1-yl)propyl]-1,3-thiazole-5-carboxamide]: the concentration for half-maximal inhibition (IC50) in experiment [1] worked out at 4.14 µM; at NAMPT, 0.000682 µM.

On to `COCCC(=O)N(Cc1ccc(F)cc1)c1ncc(C(=O)NCCCn2ccnc2)s1` [Example 25, 2-[(4-fluorobenzyl)(3-methoxypropanoyl)amino]-N-[3-(1H-imidazol-1-yl)propyl]-1,3-thiazole-5-carboxamide], for which the half-inhibitory concentration (IC50) was determined as 1.63 µM in experiment [1] and 0.0014 µM at NAMPT.

`CN(C)CC(=O)N(Cc1ccc(F)cc1)c1ncc(C(=O)NCCCn2ccnc2)s1` [Example 26, 2-[(N,N-dimethylglycyl)(4-fluorobenzyl)amino]-N-[3-(1H-imidazol-1-yl)propyl]-1,3-thiazole-5-carboxamide] registered an IC50 on NAMPT of 0.00121 µM.

Take `O=C(NCCCn1ccnc1)c1cnc(N(Cc2ccc(F)cc2)C(=O)CN2CC=CCC2)s1` [Example 27, 2-[(3,6-dihydropyridin-1(2H)-ylacetyl)(4-fluorobenzyl)amino]-N-[3-(1H-imidazol-1-yl)propyl]-1,3-thiazole-5-carboxamide]: the figures for the 50% inhibitory concentration (IC50) (in experiment [1]; at NAMPT) were over 10 µM and 0.000632 µM, respectively.

As for `CC1CCN(CC(=O)N(Cc2ccc(F)cc2)c2ncc(C(=O)NCCCn3ccnc3)s2)CC1` [Example 28, 2-{(4-fluorobenzyl)[(4-methylpiperidin-1-yl)acetyl]amino}-N-[3-(1H-imidazol-1-yl)propyl]-1,3-thiazole-5-carboxamide], the IC50 in experiment [1] was 7.02 µM; on NAMPT, 0.000833 µM.

A word on the IC50: it is the midpoint of a concentration-inhibition curve.

For the origin of these results see patent publication US9334264B2, “NAMPT inhibitors” (AbbVie Inc., priority 2012, dated 2016).
